Assay results as given in US4068070A, “α-Cyanoamine compounds and a process for producing the same” (Fuji Chemical Industry Co., Ltd., priority 1974, dated 1978).

Columns and labels:
Type in all cases: in vivo, mongrel adult dogs
heart rate = assay: Effects on heart rate
How it was run: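 Adult mongrel dogs of both sexes were anesthetized with pentobarbital and thoracotomized. Test agents, suspended or dissolved in 0.2% CMC, pH 6 HCl solution or saline, were injected intravenously into the brachial vein. Hemodynamic and coronary sinus parameters were then recorded.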

[1] = test system: coronary sinus oxygen tension; assay: Effects on coronary sinus oxygen tension
How it was run: (§1)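 Intravenous brachial dosing of test compound or active placebo in anesthetized, thoracotomized dogs weighing about 10 kg. Coronary sinus outflow was measured with an electromagnetic flowmeter and oxygen tension with a pO2 electrode after Morawitz cannulation of the sinus.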

coronary sinus out flow = assay: Effects on coronary sinus out flow
How it was run: as §1

aortic blood flow = assay: Effects on aortic blood flow
How it was run: (§2)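 In pentobarbital-anesthetized open-chest mongrels, aortic root flow and carotid-cannula blood pressure are monitored after i.v. administration.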

[2] = test system: arterial mean blood pressure; assay: Effects on arterial mean blood pressure
How it was run: as §2

SMILES: COc1ccc(C(C#N)N2CCCN(CC=Cc3ccccc3)CC2)cc1OC (centres unmarked) [Compound E]
- Changes(%) of basal values, heart rate (heart rate; 2.0 mg/kg i.v., 1 min): -0.2%
- Changes(%) of basal values, heart rate (heart rate; 2.0 mg/kg i.v., 5 min): -0.6%
- Changes(%) of basal values, heart rate (heart rate; 2.0 mg/kg i.v., 10 min): -1.3%
- Changes(%) of basal values, heart rate (heart rate; 2.0 mg/kg i.v., 20 min): 0%
- Changes(%) of basal values, heart rate (heart rate; 2.0 mg/kg i.v., 30 min): 0%
- Changes(%) of basal values, heart rate (heart rate; 2.0 mg/kg i.v., 40 min): 0%
- Changes(%) of basal values, heart rate (heart rate; 2.0 mg/kg i.v., imm.): -2.9%
- Changes(%) of basal values, heart rate (heart rate; 6.0 mg/kg i.v., 1 min): -0.9%
- Changes(%) of basal values, heart rate (heart rate; 6.0 mg/kg i.v., 5 min): -3.7%
- Changes(%) of basal values, heart rate (heart rate; 6.0 mg/kg i.v., 10 min): -1.4%
- Changes(%) of basal values, heart rate (heart rate; 6.0 mg/kg i.v., 20 min): -1.3%
- Changes(%) of basal values, heart rate (heart rate; 6.0 mg/kg i.v., 30 min): -0.8%
- Changes(%) of basal values, heart rate (heart rate; 6.0 mg/kg i.v., 40 min): -0.6%
- Changes(%) of basal values, heart rate (heart rate; 6.0 mg/kg i.v., imm.): -9.1%
- Changes(%) of basal values, heart rate (heart rate; 20.0 mg/kg i.v., 1 min): -1.0%
- Changes(%) of basal values, heart rate (heart rate; 20.0 mg/kg i.v., 5 min): -7.8%
- Changes(%) of basal values, heart rate (heart rate; 20.0 mg/kg i.v., 10 min): -9.1%
- Changes(%) of basal values, heart rate (heart rate; 20.0 mg/kg i.v., 20 min): -7.9%
- Changes(%) of basal values, heart rate (heart rate; 20.0 mg/kg i.v., 30 min): -7.1%
- Changes(%) of basal values, heart rate (heart rate; 20.0 mg/kg i.v., 40 min): -6.6%
- Changes(%) of basal values, heart rate (heart rate; 20.0 mg/kg i.v., imm.): -16.8%
- Effects on heart rate (in words) (heart rate; i.v., anesthetized dogs): a slight negative chronotropic effect
- Changes(%) of basal values, coronary sinus oxygen tension ([1]; 2.0 mg/kg i.v., 1 min): +4.1%
- Changes(%) of basal values, coronary sinus oxygen tension ([1]; 2.0 mg/kg i.v., 5 min): +1.1%
- Changes(%) of basal values, coronary sinus oxygen tension ([1]; 2.0 mg/kg i.v., 10 min): +0.5%
- Changes(%) of basal values, coronary sinus oxygen tension ([1]; 2.0 mg/kg i.v., 20 min): 0%
- Changes(%) of basal values, coronary sinus oxygen tension ([1]; 2.0 mg/kg i.v., 30 min): 0%
- Changes(%) of basal values, coronary sinus oxygen tension ([1]; 2.0 mg/kg i.v., 40 min): 0%
- Changes(%) of basal values, coronary sinus oxygen tension ([1]; 2.0 mg/kg i.v., imm.): +8.3%
- Changes(%) of basal values, coronary sinus oxygen tension ([1]; 6.0 mg/kg i.v., 1 min): +27.0%
- Changes(%) of basal values, coronary sinus oxygen tension ([1]; 6.0 mg/kg i.v., 5 min): +8.0%
- Changes(%) of basal values, coronary sinus oxygen tension ([1]; 6.0 mg/kg i.v., 10 min): +8.5%
- Changes(%) of basal values, coronary sinus oxygen tension ([1]; 6.0 mg/kg i.v., 20 min): +4.2%
- Changes(%) of basal values, coronary sinus oxygen tension ([1]; 6.0 mg/kg i.v., 30 min): +2.5%
- Changes(%) of basal values, coronary sinus oxygen tension ([1]; 6.0 mg/kg i.v., 40 min): +0.8%
- Changes(%) of basal values, coronary sinus oxygen tension ([1]; 6.0 mg/kg i.v., imm.): +29.7%
- Changes(%) of basal values, coronary sinus oxygen tension ([1]; 20.0 mg/kg i.v., 1 min): +39.2%
- Changes(%) of basal values, coronary sinus oxygen tension ([1]; 20.0 mg/kg i.v., 5 min): +20.4%
- Changes(%) of basal values, coronary sinus oxygen tension ([1]; 20.0 mg/kg i.v., 10 min): +16.6%
- Changes(%) of basal values, coronary sinus oxygen tension ([1]; 20.0 mg/kg i.v., 20 min): +20.8%
- Changes(%) of basal values, coronary sinus oxygen tension ([1]; 20.0 mg/kg i.v., 30 min): +20.2%
- Changes(%) of basal values, coronary sinus oxygen tension ([1]; 20.0 mg/kg i.v., 40 min): +19.8%
- Changes(%) of basal values, coronary sinus oxygen tension ([1]; 20.0 mg/kg i.v., imm.): +46.2%
- Effects on coronary sinus oxygen tension (in words) ([1]; i.v., anesthetized dogs): a significant increase in coronary sinus oxygen tension, effect of which was of long duration
- Changes(%) of basal values, coronary sinus out flow (coronary sinus out flow; 2.0 mg/kg i.v., 1 min): +2.5%
- Changes(%) of basal values, coronary sinus out flow (coronary sinus out flow; 2.0 mg/kg i.v., 5 min): -0.8%
- Changes(%) of basal values, coronary sinus out flow (coronary sinus out flow; 2.0 mg/kg i.v., 10 min): -1.0%
- Changes(%) of basal values, coronary sinus out flow (coronary sinus out flow; 2.0 mg/kg i.v., 20 min): -0.3%
- Changes(%) of basal values, coronary sinus out flow (coronary sinus out flow; 2.0 mg/kg i.v., 30 min): 0%
- Changes(%) of basal values, coronary sinus out flow (coronary sinus out flow; 2.0 mg/kg i.v., 40 min): 0%
- Changes(%) of basal values, coronary sinus out flow (coronary sinus out flow; 2.0 mg/kg i.v., imm.): +7.8%
- Changes(%) of basal values, coronary sinus out flow (coronary sinus out flow; 6.0 mg/kg i.v., 1 min): +24.3%
- Changes(%) of basal values, coronary sinus out flow (coronary sinus out flow; 6.0 mg/kg i.v., 5 min): +4.2%
- Changes(%) of basal values, coronary sinus out flow (coronary sinus out flow; 6.0 mg/kg i.v., 10 min): +3.3%
- Changes(%) of basal values, coronary sinus out flow (coronary sinus out flow; 6.0 mg/kg i.v., 20 min): +2.3%
- Changes(%) of basal values, coronary sinus out flow (coronary sinus out flow; 6.0 mg/kg i.v., 30 min): +1.5%
- Changes(%) of basal values, coronary sinus out flow (coronary sinus out flow; 6.0 mg/kg i.v., 40 min): +1.1%
- Changes(%) of basal values, coronary sinus out flow (coronary sinus out flow; 6.0 mg/kg i.v., imm.): +51.3%
- Changes(%) of basal values, coronary sinus out flow (coronary sinus out flow; 20.0 mg/kg i.v., 1 min): +64.3%
- Changes(%) of basal values, coronary sinus out flow (coronary sinus out flow; 20.0 mg/kg i.v., 5 min): +14.7%
- Changes(%) of basal values, coronary sinus out flow (coronary sinus out flow; 20.0 mg/kg i.v., 10 min): +15.8%
- Changes(%) of basal values, coronary sinus out flow (coronary sinus out flow; 20.0 mg/kg i.v., 20 min): +15.4%
- Changes(%) of basal values, coronary sinus out flow (coronary sinus out flow; 20.0 mg/kg i.v., 30 min): +12.1%
- Changes(%) of basal values, coronary sinus out flow (coronary sinus out flow; 20.0 mg/kg i.v., 40 min): +9.8%
- Changes(%) of basal values, coronary sinus out flow (coronary sinus out flow; 20.0 mg/kg i.v., imm.): +90.3%
- Effects on coronary sinus out flow (in words) (coronary sinus out flow; i.v., anesthetized dogs): a marked increasing effect on coronary sinus out flow, which was proportioned to doses thereof and of long duration
- Changes (%) of basal values, aortic blood flow (aortic blood flow; 2.0 mg/kg i.v., 1 min): +3.6%
- Changes (%) of basal values, aortic blood flow (aortic blood flow; 2.0 mg/kg i.v., 5 min): +0.8%
- Changes (%) of basal values, aortic blood flow (aortic blood flow; 2.0 mg/kg i.v., 10 min): 0%
- Changes (%) of basal values, aortic blood flow (aortic blood flow; 2.0 mg/kg i.v., 20 min): 0%
- Changes (%) of basal values, aortic blood flow (aortic blood flow; 2.0 mg/kg i.v., 30 min): 0%
- Changes (%) of basal values, aortic blood flow (aortic blood flow; 2.0 mg/kg i.v., 40 min): 0%
- Changes (%) of basal values, aortic blood flow (aortic blood flow; 2.0 mg/kg i.v., imm.): +9.9%
- Changes (%) of basal values, aortic blood flow (aortic blood flow; 6.0 mg/kg i.v., 1 min): +5.8%
- Changes (%) of basal values, aortic blood flow (aortic blood flow; 6.0 mg/kg i.v., 5 min): 0%
- Changes (%) of basal values, aortic blood flow (aortic blood flow; 6.0 mg/kg i.v., 10 min): -3.7%
- Changes (%) of basal values, aortic blood flow (aortic blood flow; 6.0 mg/kg i.v., 20 min): -2.8%
- Changes (%) of basal values, aortic blood flow (aortic blood flow; 6.0 mg/kg i.v., 30 min): -1.5%
- Changes (%) of basal values, aortic blood flow (aortic blood flow; 6.0 mg/kg i.v., 40 min): -0.3%
- Changes (%) of basal values, aortic blood flow (aortic blood flow; 6.0 mg/kg i.v., imm.): +11.7%
- Changes (%) of basal values, aortic blood flow (aortic blood flow; 20.0 mg/kg i.v., 1 min): +7.6%
- Changes (%) of basal values, aortic blood flow (aortic blood flow; 20.0 mg/kg i.v., 5 min): -4.8%
- Changes (%) of basal values, aortic blood flow (aortic blood flow; 20.0 mg/kg i.v., 10 min): -12.4%
- Changes (%) of basal values, aortic blood flow (aortic blood flow; 20.0 mg/kg i.v., 20 min): -10.5%
- Changes (%) of basal values, aortic blood flow (aortic blood flow; 20.0 mg/kg i.v., 30 min): -9.5%
- Changes (%) of basal values, aortic blood flow (aortic blood flow; 20.0 mg/kg i.v., 40 min): -7.6%
- Changes (%) of basal values, aortic blood flow (aortic blood flow; 20.0 mg/kg i.v., imm.): +16.3%
- Effects on aortic blood flow (in words) (aortic blood flow; i.v., anesthetized dogs): an increase in blood flow immediately after administration, followed by a decrease in blood flow
- Changes (%) of basal values, arterial mean blood pressure ([2]; 2.0 mg/kg i.v., 1 min): -1.5%
- Changes (%) of basal values, arterial mean blood pressure ([2]; 2.0 mg/kg i.v., 5 min): -3.3%
- Changes (%) of basal values, arterial mean blood pressure ([2]; 2.0 mg/kg i.v., 10 min): -2.1%
- Changes (%) of basal values, arterial mean blood pressure ([2]; 2.0 mg/kg i.v., 20 min): -1.0%
- Changes (%) of basal values, arterial mean blood pressure ([2]; 2.0 mg/kg i.v., 30 min): -0.3%
- Changes (%) of basal values, arterial mean blood pressure ([2]; 2.0 mg/kg i.v., 40 min): 0%
- Changes (%) of basal values, arterial mean blood pressure ([2]; 2.0 mg/kg i.v., imm.): -7.4%
- Changes (%) of basal values, arterial mean blood pressure ([2]; 6.0 mg/kg i.v., 1 min): -3.8%
- Changes (%) of basal values, arterial mean blood pressure ([2]; 6.0 mg/kg i.v., 5 min): -6.0%
- Changes (%) of basal values, arterial mean blood pressure ([2]; 6.0 mg/kg i.v., 10 min): -10.9%
- Changes (%) of basal values, arterial mean blood pressure ([2]; 6.0 mg/kg i.v., 20 min): -8.2%
- Changes (%) of basal values, arterial mean blood pressure ([2]; 6.0 mg/kg i.v., 30 min): -3.8%
- Changes (%) of basal values, arterial mean blood pressure ([2]; 6.0 mg/kg i.v., 40 min): -2.8%
- Changes (%) of basal values, arterial mean blood pressure ([2]; 6.0 mg/kg i.v., imm.): -22.6%
- Changes (%) of basal values, arterial mean blood pressure ([2]; 20.0 mg/kg i.v., 1 min): -8.3%
- Changes (%) of basal values, arterial mean blood pressure ([2]; 20.0 mg/kg i.v., 5 min): -15.9%
- Changes (%) of basal values, arterial mean blood pressure ([2]; 20.0 mg/kg i.v., 10 min): -21.2%
- Changes (%) of basal values, arterial mean blood pressure ([2]; 20.0 mg/kg i.v., 20 min): -19.9%
- Changes (%) of basal values, arterial mean blood pressure ([2]; 20.0 mg/kg i.v., 30 min): -16.2%
- Changes (%) of basal values, arterial mean blood pressure ([2]; 20.0 mg/kg i.v., 40 min): -11.4%
- Changes (%) of basal values, arterial mean blood pressure ([2]; 20.0 mg/kg i.v., imm.): -29.9%
- Effects on arterial mean blood pressure (in words) ([2]; i.v., anesthetized dogs): hypotensive effects being proportioned to their doses which were of long duration
